According to ChEMBL document CHEMBL5233217, “Modification of 7-piperazinylquinolone antibacterials to promising anticancer lead compounds: Synthesis and in vitro studies” (Eur J Med Chem, 2020):
Blank lines part the entries; values can stand above or below the compound they belong to.

Tests used:
CAKI-1 = assay: Anticancer activity against human CAKI-1 cells assessed as cell growth inhibition; format: functional; settings: pooled result: one value given for 3 cell lines, strains, targets or settings
SiHa = assay: Antiproliferative activity against human SiHa cells assessed as cell growth inhibition incubated for 48 hrs by sulforhodamine B assay; format: functional
PANC-1 = assay: Antiproliferative activity against human PANC-1 cells assessed as cell growth inhibition incubated for 48 hrs by sulforhodamine B assay; format: functional
L1210 [1] = assay: Antiproliferative activity against mouse L1210 cells assessed as reduction in cell viability incubated for 48 hrs by MTT assay; format: functional, cell-based; settings: L1210, 48 h
SMMC-7721 [2] = assay: Antiproliferative activity against human SMMC-7721 cells assessed as reduction in cell viability; format: functional, cell-based
L1210 [3] = assay: Antiproliferative activity against mouse L1210 cells assessed as reduction in cell viability; format: functional, cell-based
HL-60 [4] = assay: Antiproliferative activity against human HL-60 cells assessed as reduction in cell viability; format: functional, cell-based
Hep 3B2 = assay: Antiproliferative activity against human Hep3B cells assessed as reduction in cell viability; format: functional, cell-based
CAPAN-1 = assay: Antiproliferative activity against human CAPAN-1 cells assessed as reduction in cell viability; format: functional, cell-based
L1210 [5] = assay: Anticancer activity against mouse L1210 cells assessed as reduction in cell viability by MTT assay; format: functional, cell-based
[6] = Cytotoxicity against Chinese hamster CHO cells assessed as reduction in cell viability by MTT assay; format: toxicity, cell-based, Cricetulus griseus
HL-60 [7] = assay: Cytotoxicity against human HL-60 cells assessed as reduction in cell viability by MTT assay; format: functional, cell-based
SMMC-7721 [8] = assay: Antiproliferative activity against human SMMC-7721 cells assessed as reduction in cell viability incubated for 24 hrs by MTT assay; format: functional, cell-based; settings: SMMC-7721, 24 h
SK-MEL3 = assay: Anticancer activity against human SK-MEL3 cells assessed as reduction in cell viability incubated for 72 hrs by MTT assay; format: functional, cell-based; settings: SK-MEL3, 72 h
MCF7 = assay: Anticancer activity against human MCF7 cells assessed as reduction in cell viability incubated for 72 hrs by MTT assay; format: functional, cell-based; settings: MCF7, 72 h
A-431 = assay: Anticancer activity against human A-431 cells assessed as reduction in cell viability incubated for 72 hrs by MTT assay; format: functional, cell-based; settings: A-431, 72 h
EJ = assay: Anticancer activity against human EJ cells assessed as reduction in cell viability incubated for 72 hrs by MTT assay; format: functional, cell-based
KB = assay: Anticancer activity against human KB cells assessed as reduction in cell viability incubated for 72 hrs by MTT assay; format: functional, cell-based
SW480 = assay: Anticancer activity against human SW480 cells assessed as reduction in cell viability incubated for 72 hrs by MTT assay; format: functional, cell-based; settings: SW480, 72 h
CT26 = assay: Antitumor activity against mouse CT26 cells assessed as reduction in cell viability incubated for 4 hrs by MTT assay; format: functional, cell-based; settings: CT26, 4 h
A549 = assay: Antitumor activity against human A549 cells assessed as reduction in cell viability incubated for 4 hrs by MTT assay; format: functional, cell-based; settings: A549, 4 h
L1210 [9] = assay: Cytotoxicity against mouse L1210 cells assessed as reduction in cell viability by MTT assay; format: functional, cell-based
L1210 [10] = assay: Antiproliferative activity against mouse L1210 cells assessed as reduction in cell viability by MTT assay; format: functional, cell-based

SMILES: C=C1CC(CN2CCN(c3cc4c(cc3F)c(=O)c(C(=O)O)cn4CC)CC2)(c2ccc(OC)cc2)OC1=O (stereo not given)
GI50 (CAKI-1): 6460 nM

SMILES: C=C1CC(CN2CCN(c3cc4c(cc3F)c(=O)c(C(=O)O)cn4CC)CC2)(c2ccccc2)OC1=O (stereo not given)
GI50 (CAKI-1): 3390 nM

SMILES: CCn1cc(C(=O)O)c(=O)c2cnc(N3CCN(C(=O)CCSc4nnnn4-c4ccc(F)c(F)c4F)CC3)nc21
GI50 (SiHa): 60 nM
GI50 (PANC-1): 60 nM

SMILES: O=C(O)c1cn(C2CC2)c2cc(N3CCN(C(=O)CCSc4nnnn4-c4ccc(Br)cc4)CC3)c(F)cc2c1=O
GI50 (SiHa): 60 nM
GI50 (PANC-1): 60 nM

SMILES: CCn1cc(-c2nc(SCc3nnc(-c4ccc(F)cc4)o3)n(CN(C)C)n2)c(=O)c2cc(F)c(N3CCN(C)CC3)cc21
IC50 (SMMC-7721 [2]): 1500 nM
IC50 (L1210 [3]): 1500 nM
IC50 (HL-60 [4]): 1500 nM
IC50 (Hep 3B2): 1500 nM
IC50 (CAPAN-1): 1500 nM

SMILES: CC1COc2c(N3CCN(C)CC3)c(F)cc3c(=O)c(-c4n[nH]c5cc(-c6ccc(O)c(O)c6)nn45)cn1c23 (stereo not given)
IC50 (L1210 [5]): 1200 nM

SMILES: CCn1cc(-c2nn(CN(C)C)c(=S)o2)c(=O)c2cc(F)c(N3CCN(C)CC3)cc21
IC50 (Hep 3B2): 8400 nM

SMILES: COc1ccccc1-c1nnc(CSc2nnc(-c3cn4c5c(c(N6CCN(C)CC6)c(F)cc5c3=O)OC[C@@H]4C)o2)o1
IC50 [6]: 1000 nM
IC50 (HL-60 [7]): 2200 nM
IC50 (SMMC-7721 [8]): 1300 nM

SMILES: CCn1cc(-c2nn(CNc3ccc(Cl)cc3)c(=S)o2)c(=O)c2cc(F)c(N3CCN(C)CC3)cc21
IC50 (Hep 3B2): 45400 nM

SMILES: O=c1c(-c2n[nH]c3cc(-c4ccc(O)c(O)c4)nn23)cn(C2CC2)c2cc(N3CCNCC3)c(F)cc12
IC50 (L1210 [5]): 140 nM

SMILES: C[C@H]1COc2c(N3CCN(C)CC3)c(F)cc3c(=O)c(-c4nnc(S)o4)cn1c23
IC50 [6]: > 50000 nM
IC50 (HL-60 [7]): > 50000 nM
IC50 (SMMC-7721 [8]): > 50000 nM

More lines, main results first:

GI50 (PANC-1): 60 nM
SMILES: CCn1cc(C(=O)O)c(=O)c2cnc(N3CCN(C(=O)CCSc4nnnn4-c4ccc(Br)cc4)CC3)nc21
GI50 (SiHa): 60 nM

GI50 (PANC-1): 60 nM
SMILES: O=C(O)c1cn(C2CC2)c2cc(N3CCN(C(=O)CCSc4nnnn4Cc4ccccc4)CC3)c(F)cc2c1=O
GI50 (SiHa): 60 nM

IC50 (L1210 [1]): 1500 nM
SMILES: C[C@H]1COc2c(N3CCN(C)CC3)c(F)cc3c(=O)c(-c4nn5c(-c6cn(C7CC7)c7cc(N8CCNCC8)c(F)cc7c6=O)nnc5s4)cn1c23

IC50 (SMMC-7721 [2]): 3800 nM
IC50 (L1210 [3]): 3800 nM
IC50 (HL-60 [4]): 3800 nM
SMILES: CCn1cc(-c2nnc(SCc3nnc(-c4ccc(F)cc4)o3)[nH]2)c(=O)c2cc(F)c(N3CCN(C)CC3)cc21
IC50 (Hep 3B2): 3800 nM
IC50 (CAPAN-1): 3800 nM

IC50 (SMMC-7721 [2]): 3800 nM
IC50 (L1210 [3]): 3800 nM
IC50 (HL-60 [4]): 3800 nM
SMILES: CCn1cc(-c2nnc(SCc3nnc(-c4ccccc4OC)o3)[nH]2)c(=O)c2cc(F)c(N3CCN(C)CC3)cc21
IC50 (Hep 3B2): 3800 nM
IC50 (CAPAN-1): 3800 nM

GI50 (PANC-1): 60 nM
SMILES: CCn1cc(C(=O)O)c(=O)c2cnc(N3CCN(C(=O)CCSc4nnnn4Cc4ccccc4)CC3)nc21
GI50 (SiHa): 60 nM

IC50 (L1210 [5]): 1400 nM
SMILES: O=c1c(-c2nnc3n2N=C(c2ccc(O)c(O)c2)CS3)cn(C2CC2)c2cc(N3CCNCC3)c(F)cc12

IC50 (L1210 [5]): 1800 nM
SMILES: CC1COc2c(N3CCN(C)CC3)c(F)cc3c(=O)c(-c4nnc5n4N=C(c4ccc(O)c(O)c4)CS5)cn1c23 (stereo not given)

IC50 (SMMC-7721 [8]): 820 nM
SMILES: COc1ccccc1-c1nnc(CSc2nnc(-c3cn4c5c(c(N6CC[N+](C)(C)CC6)c(F)cc5c3=O)OC[C@@H]4C)o2)o1
IC50 [6]: 410 nM
IC50 (HL-60 [7]): 1600 nM

IC50 (SK-MEL3): > 128000 nM
IC50 (MCF7): > 128000 nM
IC50 (A-431): > 128000 nM
IC50 (KB): > 128000 nM
IC50 (SW480): > 128000 nM
IC50 (CT26): 330000 nM
IC50 (A549): 330000 nM
IC50 (L1210 [10]): > 150000 nM
SMILES: O=C(O)c1cn(C2CC2)c2cc(N3CCNCC3)c(F)cc2c1=O [CIPROFLOXACIN]
IC50 (EJ): > 128000 nM
IC50 [6]: > 150000 nM
IC50 (HL-60 [7]): > 150000 nM
IC50 (L1210 [9]): > 150000 nM
